1 compound from patent US20250312469A1 (CANGET BIOTEKPHARMA, priority 2024, published 2025) can be followed below.

The test system of this experiment is Agrin mRNA. Put plainly: Real-time RT-PCR of Agrin mRNA in Panc-1 and MiaPaca2 cells. The format is cell-based, human. The method, then:
Real time quantitative (q) RT-PCR: Real time RT-PCR methods were described previously (9, 56). Pertinent to this study, total RNAs were extracted from cancer cells using TRI REAGENT RT (Molecular Research Center), and 5 μg per sample was converted to cDNA with anchored oligo (dT) primers using RevertAid First Strand cDNA Synthesis Kit (Thermo Fisher Scientific, Catalog No. K1622) following the manufacturer's instructions. Individual reverse transcription (RT) reactions of 20 μL were then diluted to 200 μL with sterile H2O. Five microliters of diluted RT reaction were used for real-time qPCR using Maxima SYBR Green/ROX qPCR Master Mix (2×, Thermo Fisher Scientific, Catalog No. K0223). The primers used in qPCR were as follows: 5′-GGC GCA CAG CAC AAG AGG-3′ (DDX5 qPCR-F, forward) and 5′-ATGGCAGGAAGCAAATAAGACAA-3′ (DDX5 qPCR-R, reverse); 5′-CTTCTGCTTCAAGGAGCTGGAAG-3′ (hsv5p2, survivin, forward) and 5′-GCACTTTCTTCGCAGTTTCCTC-3′ (hvs3p2, survivin, reverse); 5′-CCACAGCAAACCTCCTCACAG-3′ (myc5, c-Myc, forward) and 5′-GCAGGATAGTCCTTCCGAGTG-3′ (myc3, c-Myc, reverse); 5′-GTCTCCTCTGACTTCAACAGCG-3′ (hGAPDH-5, forward) and 5′-ACCACCCTGTTGCTGTAGCCAA-3′ (hGAPDH-3, reverse). GAPDH was used as an internal control. […] The data were analyzed using the Applied Biosystems 7300 Real Time PCR System and normalized to GAPDH.

For the compound `CCC1(O)C(=O)OCc2c1cc1n(c2=O)Cc2cc3cc4c(cc3nc2-1)OCO4` (stereo not shown) [FL118], the “Agrin mRNA” value is “inhibits Agrin mRNA”.
